# “Also recorded” adds a separate entry of the source. Where two headings read alike, the source gives them in different places. Where a SMILES comes first, the peptide text is derived from it. Bridges are numbered along the chain shown (N, C = ends). Roman numbers before positions name the chains, in order. Where no end group is shown, it is not given here.
# What was measured:
# [1] = In vitro stability of peptides to proteases in human plasma at 37 C (HPLC/LC-MS); assay type: in vitro ADME; settings: for stability to plasma proteases: 1 hr
# Description: The peptides were incubated in human plasma, at 37° C. Sample incubations were performed over a period of 1 hr. Individual time points of 1, 5, 10, 30, and 60 minutes were used to follow the reactions. Deactivation of plasma proteases at each time point was achieved by heating the samples at 100° C. for 1 min. Following work-up the plasma treated samples were evaluated by reverse phase chromatography in series with at mass spectrometer, HPLC/LC-MS, against control samples.
# Plasma Treated with HIP and Optimized HIP peptides were evaluated over 1, 5, 10, 30 and 60 minutes. For each time point 0.70 ml of plasma was pipetted into a 10 ml test tube. To each was added 0.30 ml of a stock solution of HIP or Optimized HIP peptide (1.66 mg/ml) prepared in phosphate buffered saline. The plasma/peptide samples were incubated at 37° C. for each time point followed by heating at 100° C. to inactivate the proteolytic activity of plasma proteases. Following inactivation, the samples were diluted with 1 ml of H2O, centrifuged and the supernatant liquid removed for analysis.
# Samples were analyzed on a C-18 reverse phase column (50 mm×2.0 mm) using 0.07% TFA in H2O as buffer A and 0.07% TFA in acetonitrile as buffer B. A linear gradient of 98% A/2% B progressing to 30% A/70% B over 10 min. was used at a flow rate of 0.4 ml/min. Eluant was monitored by UV at a wavelength of 220 nm and by mass spectroscopy. Comparisons of chromatographic profiles of plasma treated peptides (37° C.) against peptide reference samples and plasma controls were used to determine the relative stability of peptide to plasma treatment.
# T=0: Plasma (0.7 ml) plus peptide stock solution (0.3 ml), heat 100° C. 1 min. add 1 ml H2O, centrifuge.
# Plasma background control: 0.7 ml plasma plus PBS (0.3 ml), heat 100° C. 1 min, add 1 ml H2O, centrifuge.
# Peptide reference heat treated: Peptide stock solution (0.3 ml) plus 0.7 ml PBS, heat 100° C. 1 min., add 1 ml H2O.
# Peptide reference no heat: Peptide stock solution (0.3 ml) add 0.7 ml PBS plus 1 ml H2O.
# human plasma = settings: 37° C., up to 60 minutes
# diabetic mice = test: Streptozocin diabetic mouse model, 28 days twice-daily IP dosing (Example 2); assay type: in vivo
# Description: In Vivo Studies. HIP3, HIP1 and HIP2 has been the subject of in vivo studies in mice. […] The subject number was selected to yield a sufficient number of diabetic animals for the study and animals were randomly assigned to study groups. All animals were dosed via intraperitoneal injections twice daily (am and pm) for 28 consecutive days. The timing of dose administration remained consistent (±2 hours) during the dosing phase.
# Mice were injected intraperitoneally with streptozocin at 40 mg/kg in citrate buffer, pH 4.5, on 5 consecutive days in an attempt to render them diabetic. […] If the blood glucose level in any animal rose to above 400 mg/dL, the animal was treated with insulin. Every 3 days, at the same time each day, a nick was made on the tail and a drop of blood was collected. Glucose measurements were determined using a glucose meter. Group assignments and dose levels were as follows in Table 1:
# Study endpoints included the following: changes in glucose; changes in insulin requirements; and histology of post-mortem pancreata.
# [2] = Pharmacokinetics and absolute bioavailability in Sprague Dawley rats, IV and SC 4 mg/kg (LC/MS MS); assay type: in vivo, rat; settings: for F: SQ versus IV; for appearance of animals post-dosing: all times post-dosing, each route; for C0: estimated; for plasma levels: intravenous or subcutaneous
# Description: The absolute bioavailability and pharmacodynamic study was conducted in Sprague Dawley rats following intravenous and subcutaneous dose administration of HIP2 (FIG. 24), Optimized HIP2B and INGAP. The purpose was to determine the absorption, absolute bioavailability and plasma levels of HIP2, Optimized HIP2B and INGAP in male rats following two different routes of administration.
# Six Groups of five male Sprague Dawley rats were administered HIP2, HIP2B or INGAP by intravenous and subcutaneous routes as follows in table below.
# Ten serial blood plasma samples (0.03 ml each) were collected from a jugular vein catheter from five animals per group at 5, 10, 15, 30 minutes, 45 minutes followed by samples at 1, 2, 3, 8, and 24 hours post-dose. Plasma was collected into tubes containing EDTA. Following collection, samples were kept chilled on cool packs before centrifugation and transfer to pre-labeled microfuge tubes for storage at −70° C. or below.
# Rat plasma samples of 200 μl each were added to a micro centrifuge tube containing 1 ml of acetonitrile (0.07% trifluoroacetic acid, TFA) and stirred with a vortex mixer for 1 min. followed by centrifugation to remove precipitated plasma proteins. The supernatant solution was removed and evaporated, using a Speed Vac, to dryness. To the micro centrifuge tube containing the dry pellet was added 200 μl of 20:80 acetonitrile:water (containing 0.07% TFA). The sample was centrifuged to remove any insoluble material and the supernatant solution transferred to analytical vials for LC/MS MS analysis. The mass spectrometer was calibrated to detect the most abundant daughter ion/ions observed for each of the respective reference samples of HIP2B (M=286.0), HIP2 (M=287.1) and INGAP (M=212.2, 356.1, 373.9). Optimized HIP2B, HIP2 and INGAP plasma samples were analyzed on a C-18 reverse phase column (50 mm×2.0 mm, Varian Pursuit XRS3) using 0.07% TFA in H2O as buffer A and 0.07% TFA in acetonitrile as buffer B. A linear gradient of 98% A/2% B progressing to 100% B over 9 minutes was used at a flow rate of 0.4 ml/min.
# The following plasma controls were treated as described above and used to establish a standard concentration curve: • 1. Blank plasma as a background control • 2. Five standard plasma samples containing 6.7×10^4, 6.7×10^3, 6.7×10^2, […] ng/ml of HIP2B, HIP2 and INGAP
# [3] = HIP2B stability study in distilled water by LC/MS; assay type: physicochemical; settings: 4-8° C. and 25° C., 1, 2 and 3 weeks
# Description: Experimental Procedure. The study was initiated with two groups of eight samples each. One group is maintained at 4-8° C. and the other at 25° C., as part of a 2 month stability study. Each sample contains 4.57 milligrams of HIP2B in 5 micro liters of distilled water. One sample from each temperature group is removed and placed in a minus 20° C. freezer, for storage, every seven days until an LC/MS analysis can be performed. A series of samples were evaluated after 1, 2, and 3 weeks in the stability study against a control sample of HIP2B which had been prepared at the initiation of the study and stored at −20° C. After three weeks of stability testing at each of the temperatures described above, all of the samples were unchanged as determined by LC/MS and therefore deemed stable at 1, 2, and three weeks.
# [4] = rat, in vivo, SQ, rat, read-out: AUC(0-∝)
# [5] = rat, in vivo, SQ, rat, read-out: T1/2 (converted)
# [6] = rat, in vivo, iv, rat, read-out: AUC(0-∝)
# [7] = rat, in vivo, iv, rat, read-out: T1/2 (converted)
compound,measurement,setting,value
"CC[C@H](C)[C@H](NC(C)=O)C(=O)NCC(=O)N[C@@H](CC(C)C)C(=O)N[C@@H](Cc1c[nH]cn1)C(=O)N[C@@H](CC(=O)O)C(=O)N1CCC[C@H]1C(=O)N[C@H](C(=O)N[C@@H](CCC(N)=O)C(=O)NCC(=O)N[C@H](C(=O)N[C@@H](CCC(=O)O)C(=O)N1CCC[C@H]1C(=O)N[C@@H](CC(N)=O)C(=O)NCC(=O)N[C@@H](CSSC[C@H](NC(=O)CNC(=O)[C@H](CC(N)=O)NC(=O)[C@@H]1CCCN1C(=O)[C@H](CCC(=O)O)NC(=O)[C@@H](NC(=O)CNC(=O)[C@H](CCC(N)=O)NC(=O)[C@@H](NC(=O)[C@@H]1CCCN1C(=O)[C@H](CC(=O)O)NC(=O)[C@H](Cc1c[nH]cn1)NC(=O)[C@H](CC(C)C)NC(=O)CNC(=O)[C@@H](NC(C)=O)[C@@H](C)CC)[C@@H](C)O)[C@@H](C)O)C(N)=O)C(N)=O)[C@@H](C)O)[C@@H](C)O [HIP2B Cys-Dimer, (Ac-Ile-Gly-Leu-His-Asp-Pro-Thr-Gln-Gly-Thr-Glu-Pro-Asn-Gly-Cys-NH2)2] (I: Ac-IGLHDPTQGTEPNGC-NH2 / II: Ac-IGLHDPTQGTEPNGC-NH2; disulfide I:15-II:15)",stability to plasma proteases,[1]; human plasma 37° C.,stable to plasma proteases for at least 1 hr
IGLHDPTQGTEPNG,cleaved bond,human plasma,"isoleucine-G, major, 1 min; also recorded: L-H, minor"
Ac-IGLHDPTQGTEPNGE-NH2,not cleaved,human plasma,completely stable up to 1 hr of plasma incubation
Ac-IGLHDPTQGTEPNGC(PEG)-NH2,not cleaved,human plasma,stable to plasma proteases for up to 1 hr
WIGLHDPTQGTEPNG [HIP1],lower mean glucose versus control,"diabetic mice; 250 μg IP twice daily for 28 days, STZ diabetic mice",14.7%
same,differentiation of progenitor cells within the pancreas into new islet structures,diabetic mice; introduced into diabetic mice,stimulate differentiation of progenitor cells within the pancreas into new islet structures
"Ac-IGLHDPTQGTEPNG-NH2 [HIP2B, Ac-Ile-Gly-Leu-His-Asp-Pro-Thr-Gln-Gly-Thr-Glu-Pro-Asn-Gly-NH2]",AUC(0-∝),"[2]; IV, rat",1614.3 ng·h/mL
same,C1 h,"[2]; IV, rat",114 ng/mL
same,F,[2]; rat,0.87
same,appearance of animals post-dosing,[2],appeared normal
same,Cmax,"[2]; in vivo, IV, rat",8240 ng/mL
same,Tmax,"[2]; in vivo, IV, rat",4.98 min
same,C0,"[2]; in vivo, IV, rat",18800 ng/mL
same,clearance,"[2]; in vivo, IV, rat, read-out: apparent mean plasma clearance (converted)",31.7 mL/min/kg
same,Vd,"[2]; in vivo, IV, rat, read-out: apparent mean volume of distribution",0.48 L/kg
same,Tmax,"[2]; in vivo, SQ, rat",10 min
same,Cmax,"[2]; in vivo, SQ, rat, n = 5",2740 ng/mL
same,bioavailability,"[2]; in vivo, sc, rat, read-out: absolute subcutaneous bioavailability",87%
same,CL/F,"[2]; in vivo, sc, subcutaneous, rat, read-out: apparent mean Cl/F (converted)",35 mL/min/kg
same,plasma levels,[2]; rat,significantly higher relative to HIP2 or INGAP
same,time by which concentrations were undetectable,"[2]; intravenous, rat",≤ 45 min
same,level at 1 h,"[2]; male, Sprague Dawley, plasma, sc, SQ, rat, read-out: C1 h",612 ng/mL
same,Vd/F,"[2]; male, Sprague Dawley, plasma, sc, subcutaneous, rat, read-out: apparent mean V2/F",1 L/kg
same,AUC,[2]; [4],1930 ng·h/mL
same,half-life,[2]; [5],20.4 min
same,AUC,[2]; [6],2230 ng·h/mL
same,half-life,[2]; [7],11.4 min
same,half-life,"[2]; rat, in vivo, iv, rat, read-out: terminal phase plasma half-life",11 min
same,half-life,"[2]; rat, in vivo, sc, subcutaneous, rat, read-out: terminal phase plasma half-life",20 min
same,stability by LC/MS,[3],unchanged
same,stability to plasma proteases,[1]; human plasma 37° C.,completely stable
same,stability in vitro in serum,"[1]; serum at 37 degrees, relative to HIP 2",significantly more a more stable
"IGLHDPTQGTEPNG [HIP2, Ile-Gly-Leu-His-Asp-Pro-Thr-Gln-Gly-Thr-Glu-Pro-Asn-Gly]",C1 h,"[2]; IV, rat",0 ng/mL
same,F,[2]; rat,0.01
same,C1 h,"[2]; SQ, rat",0 ng/mL
same,appearance of animals post-dosing,[2],appeared normal
same,Cmax,"[2]; in vivo, IV, rat",29 ng/mL
same,Tmax,"[2]; in vivo, IV, rat",4.98 min
same,C0,"[2]; in vivo, IV, rat",18800 ng/mL
same,Tmax,"[2]; in vivo, SQ, rat",4.98 min
same,Cmax,"[2]; in vivo, SQ, rat, n = 5",32 ng/mL
same,plasma levels,[2]; rat,very low levels of HIP2 were observed only at five minutes post dosage; also recorded: Very low levels of HIP2 were detected at 5 minutes; also recorded: observed only at the 5 minute time point
same,AUC,[2]; [4],2.7 ng·h/mL
same,half-life,[2]; [5],1.2 min
same,AUC,[2]; [6],442 ng·h/mL
same,half-life,[2]; [7],1.2 min
same,new component (proteolysis product),"[1]; human plasma 37° C., 1 min",5%
same,new component (proteolysis product),"[1]; human plasma 37° C., 30 min",≈ 50%
same,new component (proteolysis product),"[1]; human plasma 37° C., 60 min",≈ 70%
Ac-Ile-Gly-Leu-His-Asp-Pro-Thr-Gln-Gly-Thr-Glu-Pro-Asn-Gly-Cys(PEG)-NH2 [HIP2B Cys-PEG],stability to plasma proteases,[1]; human plasma 37° C.,stable to plasma proteases for up to 1 hr
"IGLHDPSHGTLPNGS [INGAP, Ile-Gly-Leu-His-Asp-Pro-Ser-His-Gly-Thr-Leu-Pro-Asn-Gly-Ser, reference compound]",C1 h,"[2]; IV, rat",0 ng/mL
same,F,[2]; rat,0.00
same,C1 h,"[2]; SQ, rat",0 ng/mL
same,appearance of animals post-dosing,[2],appeared normal
same,plasma levels,[2]; rat,below the lower limit of quantitation; also recorded: undetectable at any time point
same,C0,"[2]; male, Sprague-Dawley, plasma, IV, rat",18800 ng/mL
same,AUC,"[2]; male, Sprague-Dawley, rat, plasma, iv, rat, footnote *extrapolated, read-out: AUC(0-∝), extrapolated",440 ng·h/mL
same,half-life,"[2]; male, Sprague-Dawley, rat, plasma, iv, rat, read-out: T1/2 (converted)",< 1.5 min
same,half-life,"[2]; male, Sprague-Dawley, rat, plasma, subcutaneous, SQ, rat, read-out: T1/2 (converted)",< 1.5 min
(Ac-IGLHDPTQGTEPNGC-NH2)2,not cleaved,human plasma,stable to plasma proteases for at least 1 hr
Ac-IGLHDPTQGTEPNG-NH2,not cleaved,human plasma,completely stable to plasma proteases after 1 hr of incubation at 37 °C
"Ac-IGLHDPTQGTEPNGE-NH2 [HIP3B, Ac-Ile-Gly-Leu-His-Asp-Pro-Thr-Gln-Gly-Thr-Glu-Pro-Asn-Gly-Glu-NH2]",stability to plasma proteases,[1]; human plasma 37° C.,completely stable
"IGLHDPTQGTEPNGE [HIP3, Ile-Gly-Leu-His-Asp-Pro-Thr-Gln-Gly-Thr-Glu-Pro-Asn-Gly-Glu]","remaining at 1 h, 0.498 mg/ml","[1]; human plasma 37° C., after 60 min, read-out: starting concentration of peptide remaining",~50%
